Reference: the supplement of paper PMC7023306
± gives the uncertainty stated by the source.

Assay: TIMS collision cross section in N2 (TIMS CCS N2); higher = larger gas-phase ion size
Conditions: drift gas: N2 (99.4% N2, 0.6% O2), calibration: Stow et al. 2017 values for Agilent ESI-L Low Concentration Tune Mix, ionization: negative ESI

| SMILES | TIMS collision cross section in N2 (ion species: [M-H]-) | TIMS collision cross section in N2 (ion species: [M-H+Na+HCO2H]-) | further results |
| --- | --- | --- | --- |
| COc1cc(C=CC(=O)O)cc(OC)c1O [Sinapic acid] | 148.27 ± 0.07 Å² |  |  |
| COc1cc2oc(-c3ccc(O)cc3)cc(=O)c2c(O)c1O [Sorbifolin] | 166.28 ± 0.23 Å² |  |  |
| CCCCCCCCCCCCCCCCCC(=O)O [Stearic acid] | 178.54 ± 0.015 Å² |  |  |
| O=C(/C=C/c1ccc(O)cc1)OC[C@H]1O[C@@H](Oc2c(-c3ccc(O)cc3)oc3cc(O)cc(O)c3c2=O)[C@H](O)[C@@H](O)[C@@H]1O [Tiliroside] | 217.09 ± 0.061 Å² |  |  |
| C[C@H]1[C@H](C)CC[C@]2(C(=O)O)CC[C@]3(C)C(=CC[C@@H]4[C@@]5(C)CC[C@H](O)C(C)(C)[C@@H]5CC[C@]43C)[C@H]12 [Ursolic acid] | 218.03 ± 0.74 Å² | 229.46 ± 0.98 Å² |  |
| O=c1cc(-c2ccc(O)cc2)oc2cc(O[C@@H]3O[C@H](CO)[C@@H](O)[C@H](O)[C@H]3O[C@@H]3OC[C@](O)(CO)[C@H]3O)cc(O)c12 [apiin] | 223.96 ± 0.26 Å² |  |  |
| CC1(C)CC[C@]2(C(=O)O)CC[C@]3(C)C(=CC[C@@H]4[C@@]5(C)C[C@H](O)[C@H](O)[C@@](C)(CO)[C@@H]5CC[C@]43C)[C@@H]2C1 [bayogenin] | 225.09 ± 0.24 Å² |  | TIMS collision cross section in N2 (ion species: [M-H+HCO2H]-): 234.73 ± 0.27 Å² |
| C[C@@H]1O[C@@H](O[C@H]2[C@H](Oc3cc(O)c4c(c3)O[C@H](c3ccc(O)c(O)c3)CC4=O)O[C@H](CO)[C@@H](O)[C@@H]2O)[C@H](O)[C@H](O)[C@H]1O [eriodictyol-7-neohesperidoside] | 222.66 ± 0.095 Å² | 234.56 ± 0.42 Å² | TIMS collision cross section in N2 (ion species: [M-3H]-): 222.52 ± 0.16 Å² |
| O=c1c(O)c(-c2ccccc2)oc2cc(O)cc(O)c12 [galangin] | 156.93 ± 0.11 Å² |  | TIMS collision cross section in N2 (ion species: [2M-H]-): 238 ± 0.12 Å² |
| CC(C)=CCc1c(O)ccc2c1O[C@H](c1ccc(O)cc1)CC2=O [isobavachin] | 185.17 ± 0.47 Å² |  | TIMS collision cross section in N2 (ion species: [2M-H]-): 237.66 ± 0.46 Å² |
| O=c1c(O[C@@H]2O[C@H](CO)[C@@H](O)[C@H](O)[C@H]2O)c(-c2ccc(O)cc2)oc2cc(O)cc(O)c12 [kaempferol-3-O-glucoside] | 200.44 ± 0.33 Å² | 222.09 ± 0.65 Å² | TIMS collision cross section in N2 (ion species: [2M-H]-): 279.93 ± 1.2 Å² |
| O=c1c(O)c(-c2ccc(O)cc2)oc2cc(OC3OC(CO)C(O)C(O)C3O)cc(O)c12 (stereo not given) [kaempferol-7-O-glucoside] | 209.17 ± 0.14 Å² | 230.04 ± 0.3 Å² | TIMS collision cross section in N2 (ion species: [2M-H]-): 283.76 ± 0.75 Å² |
| CC1(C)CC[C@]2(C(=O)O)CC[C@]3(C)C(=CC[C@@H]4[C@@]5(C)C[C@H](O)[C@H](O)[C@@](C)(C(=O)O)[C@@H]5CC[C@]43C)[C@@H]2C1 [medicagenic acid] | 226.23 ± 0.27 Å² | 243.47 ± 0.081 Å² |  |
| CCCCCCCCCCO[C@@H]1O[C@H](CO)[C@@H](O)[C@H](O)[C@H]1O [n-Decyl-beta-D-glucopyranoside] | 189.39 ± 0.39 Å² |  | TIMS collision cross section in N2 (ion species: [2M-H]-): 277.92 ± 0.32 Å²; TIMS collision cross section in N2 (ion species: [M-H+HCO2H]-): 198.21 ± 0.31 Å² |
| CCCCCCCCO[C@@H]1O[C@H](CO)[C@@H](O)[C@H](O)[C@H]1O [n-Octyl-beta-D-glucopyranoside] | 181.3 ± 0.15 Å² |  | TIMS collision cross section in N2 (ion species: [2M-H]-): 272.83 ± 0.74 Å²; TIMS collision cross section in N2 (ion species: [M-H+HCO2H]-): 190.02 ± 0.2 Å² |
| O=C(O)[C@H]1O[C@@H](Oc2cc3oc(-c4ccc(O)cc4)cc(=O)c3c(O)c2O)[C@H](O)[C@@H](O)[C@@H]1O [scutellarin (Scutellarein-7-glucuronide)] |  |  | TIMS collision cross section in N2 (ion species: [M-3H]-): 206.59 ± 0.074 Å² |
| CC1(C)C[C@H]2C3=CC[C@@H]4[C@@]5(C)CC[C@H](O)[C@](C)(CO)[C@@H]5CC[C@@]4(C)[C@]3(C)CC[C@@]2(C)[C@H](O)[C@@H]1O [soyasapogenol A] |  |  | TIMS collision cross section in N2 (ion species: [M-H+HCO2H]-): 224.66 ± 0.27 Å² |

More lines, main results first:

| TIMS collision cross section in N2 (ion species: [M-H]-) | TIMS collision cross section in N2 (ion species: [M-H+Na+HCO2H]-) | SMILES | further results |
| --- | --- | --- | --- |
| 159.43 ± 0.061 Å² |  | CCCCCCCCCCCCC(=O)O [n-Tridecanoic acid] |  |
| 232.21 ± 0.35 Å² |  | COc1ccc(CCC(=O)c2c(O)cc(O[C@@H]3O[C@H](CO)[C@@H](O)[C@H](O)[C@H]3O[C@@H]3O[C@@H](C)[C@H](O)[C@@H](O)[C@H]3O)cc2O)cc1O [neohesperidin dihydrochalcone] |  |
| 182.82 ± 0.12 Å² | 199.45 ± 0.091 Å² | COc1ccc(-c2cc(=O)c3c(O)c(OC)c(O)c(OC)c3o2)cc1 [nevadensin] |  |
| 168.54 ± 0.27 Å² |  | COc1cc(O)c2c(c1)O[C@H](c1ccc(O)cc1)CC2=O [sakuranetin] |  |
| 193.54 ± 0.18 Å² | 209.41 ± 0.26 Å² | COc1cc(-c2cc(=O)c3c(O)c(OC)c(O)c(OC)c3o2)cc(O)c1OC [scaposin] |  |
| 201.63 ± 0.24 Å² |  | COc1cc([C@@H]2Oc3c(O)cc([C@H]4Oc5cc(O)cc(O)c5C(=O)[C@@H]4O)cc3[C@H]2CO)ccc1O [silychristin] |  |
